Measured values as given in patent US20150065347A1, “CO-CRYSTALS OF DICAMBA AND A CO-CRYSTAL FORMER B” (priority 2012, published 2015).
In brackets after ≈: the same amount, converted by molar mass.

Assays:
[1] = Water solubility of the co-crystals (slurry equilibration, HPLC); assay type: physicochemical; conditions: water suspension (slurry), thermodynamic from solid; water suspensions slurried for 24 hours, filtered, liquid phase by HPLC, room temperature
Protocol: The determination of the amount of the actives in solution was performed on HPLC ACQUITY (Water) system, equipped with PDA—230 nm UV detector and Sample Manager auto-injector. Waters' Enpower software was used to record the chromatograms and to calculate the chromatographic parameters. […] Injection volume was set 1 μL by auto injector. The analysis were performed with rate flux of 0.4 ml/min. UV detection was performed at 245 nm. Peak identities were confirmed by spectrum and retention time comparison. All the analyses were performed at room temperature. All the analyzed solutions were prepared by slurry equilibration experiments. […] The suspensions were filtered and both solid phase and liquid phase were analyzed by XRPD and HPLC, respectively.

[2] = Isothermal TGA volatility study; assay type: physicochemical; conditions: isothermal TGA at 100° C., weight loss monitored for 12 hours, nitrogen flow
Protocol: TG/DTA measurement was carried out on a Seiko TG/DTA 7200 instrument. An open aluminium pan was used and the measurement was carried out under nitrogen flow with a sample weight of 5 to 10 mg. The isothermal TGA for volatility studies were performed at 100° C. and the weight loss was monitored for 12 hours.

## COc1c(Cl)ccc(Cl)c1C(=O)O [Dicamba, 3,6-dichloro-2-methoxybenzoic acid]
[1]
  solubility at 24 h: 6550 µg/mL (≈ 29.6 mM)
[2]
  TGA Volatility (% weight loss per minute): 1.20 × 10^−2 % weight loss per minute
